Results on 34 compounds are retold here after patent US8088758B2, “17β-hydroxysteroid dehydrogenase type I inhibitors” (Abbott Products GmbH, priority 2003, dated 2012).

The experiment has as its target T1, recombinant human 17β-hydroxysteroid dehydrogenase type 1 (Homo sapiens, UniProt P14061).
T1 construct: made in house; host or cells: Sf9 insect cells (baculovirus, Bac to Bac Expression System)
T1 sequence (P14061 1-328): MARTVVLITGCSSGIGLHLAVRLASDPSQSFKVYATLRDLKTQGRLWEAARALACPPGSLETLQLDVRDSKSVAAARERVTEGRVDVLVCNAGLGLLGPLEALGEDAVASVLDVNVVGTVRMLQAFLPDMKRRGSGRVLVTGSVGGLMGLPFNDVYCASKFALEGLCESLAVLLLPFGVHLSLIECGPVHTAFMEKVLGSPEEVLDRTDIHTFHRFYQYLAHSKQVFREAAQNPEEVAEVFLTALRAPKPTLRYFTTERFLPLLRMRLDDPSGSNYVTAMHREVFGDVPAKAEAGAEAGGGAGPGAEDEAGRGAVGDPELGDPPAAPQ
The experiment in a line: Inhibition of recombinant human 17β-hydroxysteroid dehydrogenase type 1 (conversion of 3H-estrone to estradiol, HPLC). The experiment is classed as biochemical. The conditions noted are these: 30 nM 3H-estrone, 1 mM NADPH, 30 min at RT; for inhibition at 0.1 µM: inhibitor 100 nM, read-out: Inhibition of rec. 17β-HSD1 (% inhibition), 100 nM; for inhibition at 1 µM: inhibitor 1 μm, read-out: Inhibition of rec. 17β-HSD1 (% inhibition), 1 μm. As to the method:
1. Inhibition of the 17β-hydroxysteroid Dehydrogenase Type 1 Enzyme
17β-HSD1 Purification: Recombinant baculovirus was generated by the “Bac to Bac Expression System” (Invitrogen). Recombinant bacmid was transfected to Sf9 insect cells using “Cellfectin Reagent” (Invitrogen). 60 h later cells were harvested; the microsomal fraction was isolated as described by Puranen et al. 1994. Aliquots were stored frozen until determination of enzymatic activity.
Assay—Inhibition of Recombinant Human 17β-hydroxysteroid Dehydrogenase Type 1:
Recombinant protein (0.1 μg/ml) was incubated in 20 mM KH2PO4 pH 7.4 with 30 nM 3H-estrone and 1 mM NADPH for 30 min at RT, in the presence of potential inhibitors at concentrations of 1 μM or 0.1 μM. Inhibitor stock solutions were prepared in DMSO. Final concentration of DMSO was adjusted to 1% in all samples. The enzyme reaction was stopped by addition of 10% trichloroacetic acid (final concentration). Samples were centrifuged in a microtiter plate at 4000 rpm for 10 min. Supernatants were applied to reverse phase HPLC on a Waters Symmetry C18 column, equipped with a Waters Sentry Guard column. Isocratic HPLC runs were performed at RT at a flow rate of 1 ml/min of acetonitrile:water 48:52 as running solvent. Radioactivity was monitored in the eluate by a Packard Flow Scintillation Analyzer. Total radioactivity for estrone and estradiol were determined in each sample and percent conversion of estrone to estradiol was calculated according to the following formula:
Percent inhibition was calculated as follows: % inhibition=100−% conversion

The term inhibition denotes the change of the read-out against control, counted positive when it falls.

In the case of `COc1ccc2c(c1)CC[C@H]1[C@@H]3[C@H](CCCCC(=O)NCc4cccnc4)CC(=O)[C@@]3(C)CC[C@H]21` [Example 338], the inhibition at 0.1 µM stood at 28.7% and the inhibition at 1 µM came to 84.6%.
As for `COc1ccc2c(c1)CC[C@H]1[C@@H]3[C@H](CCCCC(=O)NCc4ccncc4)CC(=O)[C@@]3(C)CC[C@H]21` [Example 339], the inhibition at 0.1 µM worked out at 25.9% and the inhibition at 1 µM came to 82.9%.
For `COc1ccc2c(c1)CC[C@H]1[C@@H]3[C@H](CCCCC(=O)NCc4ccccc4)CC(=O)[C@@]3(C)CC[C@H]21` [Example 340], the inhibition at 0.1 µM is 51.4% and the inhibition at 1 µM amounted to 91.9%.
Regarding `COc1ccc2c(c1)CC[C@H]1[C@@H]3[C@H](CCCCC(=O)NCc4ccccc4OC)CC(=O)[C@@]3(C)CC[C@H]21` [Example 341], the inhibition at 0.1 µM is 38.1% and the inhibition at 1 µM came out at 88%.
Regarding `COc1ccc2c(c1)CC[C@H]1[C@@H]3[C@H](CCCCC(=O)NCc4cccc(F)c4)CC(=O)[C@@]3(C)CC[C@H]21` [Example 342], the inhibition at 0.1 µM stood at 40.4% and the inhibition at 1 µM was 89.2%.
Regarding `COc1ccc2c(c1)CC[C@H]1[C@@H]3[C@H](CCCCC(=O)NCc4ccc(Cl)cc4)CC(=O)[C@@]3(C)CC[C@H]21` [Example 343], the inhibition at 0.1 µM is 47.1% and the inhibition at 1 µM stood at 86%.
In the case of `COc1ccc2c(c1)CC[C@H]1[C@@H]3[C@H](CCCCC(=O)N(C)Cc4ccccc4)CC(=O)[C@@]3(C)CC[C@H]21` [Example 344], the inhibition at 0.1 µM was 39.8% and the inhibition at 1 µM stood at 88.9%.
Taken in the same sequence, the figures for `CCCCNC(=O)CCCC[C@@H]1CC(=O)[C@@]2(C)CC[C@@H]3c4ccc(OC)cc4CC[C@H]3[C@H]12` [Example 345] were 33% and 85.6%.
Taken in the same sequence, the figures for `COc1ccc2c(c1)CC[C@H]1[C@@H]3[C@H](CCCCC(=O)NCCc4cccs4)CC(=O)[C@@]3(C)CC[C@H]21` [Example 346] were 58.2% and 91.7%.
Taken in the same sequence, the figures for `COc1ccc2c(c1)CC[C@H]1[C@@H]3[C@H](CCCCC(=O)NCCc4c[nH]c5c(C)cccc45)CC(=O)[C@@]3(C)CC[C@H]21` [Example 347] were 38% and 77.2%.
On to `COc1ccc2c(c1)CC[C@H]1[C@@H]3[C@H](CCCCCC(=O)NC4CCCCC4)CC(=O)[C@@]3(C)CC[C@H]21` [Example 348], for which the inhibition at 0.1 µM worked out at 30.5% and the inhibition at 1 µM is 82.4%.
As for `COc1ccc2c(c1)CC[C@H]1[C@@H]3[C@H](CCCCCC(=O)NCc4ccco4)CC(=O)[C@@]3(C)CC[C@H]21` [Example 350], the inhibition at 0.1 µM stood at 27.7% and the inhibition at 1 µM came out at 80.7%.
For `COc1ccc2c(c1)CC[C@H]1[C@@H]3[C@H](CCCCCC(=O)NCc4ccc5c(c4)OCO5)CC(=O)[C@@]3(C)CC[C@H]21` [Example 353] the same measures were 46.3% and 89.5%.
`COc1ccc2c(c1)CC[C@H]1[C@@H]3[C@H](CCCCCC(=O)N4CCOCC4)CC(=O)[C@@]3(C)CC[C@H]21` [Example 354]: the inhibition at 0.1 µM was found to be 28.7% and the inhibition at 1 µM came to 80.3%.
Take `COc1ccc2c(c1)CC[C@H]1[C@@H]3[C@H](CCCCCC(=O)N4CCSCC4)CC(=O)[C@@]3(C)CC[C@H]21` [Example 355]: the inhibition at 0.1 µM came to 34.4% and the inhibition at 1 µM turned out to be 85.1%.
`COc1ccc2c(c1)CC[C@H]1[C@@H]3[C@H](CCCCCC(=O)NCc4cccnc4)CC(=O)[C@@]3(C)CC[C@H]21` [Example 356]: the inhibition at 0.1 µM turned out to be 26.9% and the inhibition at 1 µM worked out at 83.9%.
Take `COc1ccc2c(c1)CC[C@H]1[C@@H]3[C@H](CCCCCC(=O)NCc4ccncc4)CC(=O)[C@@]3(C)CC[C@H]21` [Example 357]: the inhibition at 0.1 µM worked out at 31.1% and the inhibition at 1 µM turned out to be 85.2%.
`COc1ccc2c(c1)CC[C@H]1[C@@H]3[C@H](CCCCCC(=O)NCc4ccccc4)CC(=O)[C@@]3(C)CC[C@H]21` [Example 359]: the inhibition at 0.1 µM turned out to be 40.5% and the inhibition at 1 µM was found to be 88.3%.
Taken in the same sequence, the figures for `COc1ccc2c(c1)CC[C@H]1[C@@H]3[C@H](CCCCCC(=O)NCc4ccccc4OC)CC(=O)[C@@]3(C)CC[C@H]21` [Example 360] were 41.5% and 85.6%.
For `COc1ccc2c(c1)CC[C@H]1[C@@H]3[C@H](CCCCCC(=O)NCc4cccc(F)c4)CC(=O)[C@@]3(C)CC[C@H]21` [Example 361], the inhibition at 0.1 µM stood at 35.8% and the inhibition at 1 µM was 84.2%.
Take `COc1ccc2c(c1)CC[C@H]1[C@@H]3[C@H](CCCCCC(=O)NCc4ccc(Cl)cc4)CC(=O)[C@@]3(C)CC[C@H]21` [Example 362]: the inhibition at 0.1 µM stood at 35.1% and the inhibition at 1 µM was determined as 75.1%.
For `COc1ccc2c(c1)CC[C@H]1[C@@H]3[C@H](CCCCCC(=O)N(C)Cc4ccccc4)CC(=O)[C@@]3(C)CC[C@H]21` [Example 364] the same measures were 48.7% and 90.8%.
`CCCCNC(=O)CCCCC[C@@H]1CC(=O)[C@@]2(C)CC[C@@H]3c4ccc(OC)cc4CC[C@H]3[C@H]12` [Example 365]: the inhibition at 0.1 µM worked out at 33.7% and the inhibition at 1 µM was determined as 86.4%.
As for `COc1ccc2c(c1)CC[C@H]1[C@@H]3[C@H](CCCCCC(=O)NCCc4cccs4)CC(=O)[C@@]3(C)CC[C@H]21` [Example 366], the inhibition at 0.1 µM was 56.3% and the inhibition at 1 µM amounted to 94.4%.
Taken in the same sequence, the figures for `COc1ccc2c(c1)CC[C@H]1[C@@H]3[C@H](CCCCCC(=O)NCCc4c[nH]c5c(C)cccc45)CC(=O)[C@@]3(C)CC[C@H]21` [Example 367] were 51.5% and 73.5%.
Regarding `CCOC(=O)CNNC(=O)CCCCC[C@@H]1CC(=O)[C@@]2(C)CC[C@@H]3c4ccc(OC)cc4CC[C@H]3[C@H]12` [Example 414], the inhibition at 0.1 µM was 44.9% and the inhibition at 1 µM was found to be 49.9%.
For `COc1cccc(NC(=O)NCCC[C@@H]2CC(=O)[C@@]3(C)CC[C@@H]4c5ccc(OC)cc5CC[C@H]4[C@H]23)c1` [Example 443], the inhibition at 0.1 µM came to 39.8% and the inhibition at 1 µM stood at 84.1%.
Take `COc1ccc(NC(=O)NCCC[C@@H]2CC(=O)[C@@]3(C)CC[C@@H]4c5ccc(OC)cc5CC[C@H]4[C@H]23)cc1` [Example 446]: the inhibition at 0.1 µM stood at 72.4% and the inhibition at 1 µM is 94.2%.
`COc1ccc2c(c1)CC[C@H]1[C@@H]3[C@H](CCCNC(=O)NC(C)C)CC(=O)[C@@]3(C)CC[C@H]21` [Example 449]: the inhibition at 0.1 µM was 26% and the inhibition at 1 µM worked out at 82.7%.
For `COc1ccc2c(c1)CC[C@H]1[C@@H]3[C@H](CCCNC(=O)NC4CCCCC4)CC(=O)[C@@]3(C)CC[C@H]21` [Example 450], the inhibition at 0.1 µM is 34% and the inhibition at 1 µM worked out at 80.7%.
For the compound `COc1ccc2c(c1)CC[C@H]1[C@@H]3[C@H](CCCNC(=O)Nc4cccc5ccccc45)CC(=O)[C@@]3(C)CC[C@H]21` [Example 451], the inhibition at 0.1 µM came out at 32.3% and the inhibition at 1 µM worked out at 74.6%.
In the case of `COc1ccc2c(c1)CC[C@H]1[C@@H]3[C@H](CCCNC(=O)NCc4ccccc4)CC(=O)[C@@]3(C)CC[C@H]21` [Example 452], the inhibition at 0.1 µM was found to be 38.6% and the inhibition at 1 µM was determined as 82.9%.
For `COc1ccc2c(c1)CC[C@H]1[C@@H]3[C@H](CCCNC(=O)Nc4ccc5ccccc5c4)CC(=O)[C@@]3(C)CC[C@H]21` [Example 460] the same measures were 50.1% and 77.2%.
Take `COc1ccc(NC(=O)NCCCC[C@@H]2CC(=O)[C@@]3(C)CC[C@@H]4c5ccc(OC)cc5CC[C@H]4[C@H]23)cc1` [Example 471]: the inhibition at 0.1 µM stood at 28.7% and the inhibition at 1 µM worked out at 77%.
